# Measurements published in US20220365085A1, “B[…], THE USE OF B[…], SENSORS […] WITH THE SAID B[…] AND THE DETECTION METHOD OF SARS-COV-2 VIRUS” (SENSDX SPÓLKA AKCYJNA, priority 2019, published 2022).
# Numbered stars: 1 amine (or outer) side, 2 acyl side, 3 side chain; on linkers, the order of the positions; unused ones are H or OH. Square brackets hold non-standard residues; d marks the D form. Peptide text beside a SMILES is read from it. * marks the point of attachment. ξ: configuration not given here. X1 = O=C([C@@H](N[*:1])c1cnc[nH]1)[*:2]; Ile(3ξ) = CCC(C)[C@H](N)C(=O)O; Lauroyl = CCCCCCCCCCCC(=O)*
# System: SARS-CoV-2 virus
compound,measurement,setting,value
"CCCCCCCCCCCC(=O)N[C@H](C(=O)N[C@H](C(=O)N[C@@H](CO)C(=O)N[C@@H](CC(N)=O)C(=O)N[C@@H](Cc1c[nH]cn1)C(=O)N[C@@H](CO)C(=O)N[C@@H](Cc1c[nH]cn1)C(=O)N[C@@H](Cc1c[nH]cn1)C(=O)N[C@@H](Cc1c[nH]cn1)C(=O)N[C@@H](CC(=O)O)C(=O)N[C@H](C(=O)N[C@@H](CC(C)C)C(N)=O)C(C)CC)C(C)CC)c1cnc[nH]1 (stereo partly drawn) [11-KOD1, 11-Mrcpt-HISNHSHHHDIL-NH2] (Lauroyl-[X1][Ile(3ξ)]SNHSHHHD[Ile(3ξ)]L-NH2)",result of the measurement on a negative swab (impedance changes on the sensor),,no impedance changes
same,result of the measurement on a positive swab (presence of the virus in the sample),"[…], MOBI SensDx reader, positive when Δ>10%",positive result (+)
